In patent US10285981B2, “Compositions and methods for treating amyotrophic lateral sclerosis in responders” (KNOPP BIOSCIENCES LLC, priority 2013, dated 2019):
Like-named read-outs stand apart in the source and are kept apart here. Values belong to the compound of their own block, whether it stands above or below them.

Columns and labels:
rodents [1] = settings: single oral dose, and above; cited from earlier work
dogs = settings: single oral dose, and above; cited from earlier work
rodents [2] = settings: approximately
humans = settings: cited from earlier work
monkeys = settings: single oral dose; cited from earlier work
subjects with ALS [3] = settings: larger Phase III study; cited from earlier work
subjects with ALS [4] = test system: subjects with ALS
Source text: Subjects with possible, probable, probable laboratory-supported, or definite ALS as defined by the El Escorial criteria who had ALS symptoms for ≤24 months at the time of entry into the study and a slow vital capacity of ≥65% of predicted were eligible to participate in this study. This study is described in more detail in the Examples.
Eligible subjects were between 18-80 years of age with a clinical diagnosis of possible, laboratory-supported probable, probable, or definite ALS, either familial or sporadic, in accordance with the revised El Escorial criteria. Subjects were required to have had onset of first ALS symptoms ≤24 months before Day 1 and an upright vital capacity of ≥65% of predicted value for age, height, and gender at screening. […] Subjects had to be able to swallow oral medications on Day 1 (FIG. 1).
Clinic visits and telephone calls/home visits may have occurred on alternating months. The primary efficacy analysis was a Combined Assessment of Function and Survival (CAFS), based on changes from baseline in the ALS Functional Rating Score-Revised (ALSFRS-R) scores or time to death using follow-up data through 12 months. […] Efficacy data was evaluated using 2-sided tests with α=0.05 for the primary and secondary endpoints. Adverse events and other safety indices were monitored throughout the study.
The primary endpoint of the method of Example 2 was the Combined Assessment of Function and Survival (CAFS), a joint-rank test that is a valid statistical approach for analyzing functional outcomes adjusted for mortality. The CAFS ranks subjects' outcomes based on both time to death and change from baseline in ALSFRS-R score using follow-up data through 12 months. CAFS is predicated on the comparison of outcomes of each subject to all other subjects in the study. A higher rank is assigned to subjects who survive versus those who die, and the change from baseline in the ALSFRS-R is used to rank each survivor. A higher CAFS ranking indicates a better global clinical outcome.
The ALSFRS-R score, VC, and McGill QoL-SIS scores were summarized by treatment group with the rate of change estimate derived from a linear mixed-effects model. Linear decline of the ALSFRS-R score over time has been shown previously. […] A mixed-model analysis was used to fit a model that included time, treatment group, and the interaction between time and treatment group simultaneously. The estimated coefficient of time, the slope, or rate of change, for each treatment group was used to test for differences between the treatment groups. Coefficient of time estimate along with its standard error was reported.

subjects with ALS [5] = test system: subjects with ALS; remark: listed apart in the source
Source text: Response is defined according to two criteria:
This analysis examined subgroup definitions based on both single and dual attribute criteria, and evaluated the performance of each subgroup with respect the two criteria above. To facilitate ranking of subgroups, we have defined a scoring metric which aggregates these two-dimensional scores into a single scalar called “score” in our report files. Larger scores are better: scores increase when mortality rates decrease, and when ALSFRS-R changes from baseline become more positive (i.e. score decreases are reduced). This scoring scheme is somewhat arbitrary; it merely serves to guide our maximization process and provide convenient rankings of subgroup quality. The definition of the score could certainly be altered to reflect different priorities on treatment effects with respect to mortality or disease progression. For this reason, we provide a complete spreadsheet of results, which can be re-sorted and re-ordered according to arbitrary balancing criteria.
1. Mortality for patients is defined by the value of the “end_status_study” field. Patients are deemed dead if and only if the value of this field is “DEATH”; any other value is interpreted as survival;
2. Disease symptom progression is measured in terms of the change in total ALSFRS-R score from baseline, as reported in the “change from baseline” attribute of each patient. Specifically, we take the value of “change from baseline” that is reported at the final measurement time for each patient.;
4. We impose minimum subgroup size filters on our results to exclude promising signals which arise due to sampling artifacts, or which would be too narrow for consideration in future studies. Analyses were run for minimum group sizes of both 50 patients (data not shown) and 100 patients (i.e. for a cutoff of N, we require at least N patients in that subgroup for both the treated and untreated groups).

subjects with ALS [6] = settings: for decline in levels of serum creatinine: Part One; for mean decline in serum creatinine: Week 28
Source text: Therefore, the Part 2, Week 28 visit was pre-specified as the primary time-point for all Part 2 data analyses.

ALS subjects [7] = settings: human, in vivo
ALS subjects [8] = settings: even after prolonged treatment; cited from earlier work
[9] = high-creatinine group, through 12 months

SMILES: CCCN[C@H]1CCc2nc(N)sc2C1 [pramipexole, (6S)-2-amino-4,5,6,7-tetrahydro-6-(propylamino)benzothiazole]
dose at which death occurred (rodents [1]): 70-105 milligrams per kilogram
dose at which vomiting occurred (dogs): ≥ 0.0007 milligrams per kilogram
human dose equivalent to the rodent lethal dose, 70 kilogram individual (rodents [2]): 500-850 milligrams
maximally tolerated dose for humans (humans; Boehringer Ingelheim product insert for Mirapex): 4.5 milligrams per day
initial single dose not tolerated (humans; human subjects): greater than 0.20 milligrams
dose shown to cause somnolence (humans; humans, as low as): 1.5 milligrams
dose at which major excitation was displayed (monkeys): 3.5 milligrams per kilogram

SMILES: CC(=O)N1N=C(c2ccc(N)cc2)c2cc3c(cc2C[C@H]1C)OCO3 [talampanel]
treatment effects in ALS (subjects with ALS [3]): failed to show any treatment effects

SMILES: CCCN[C@@H]1CCc2nc(N)sc2C1 [dexpramipexole, (6R)-2-amino-4,5,6,7-tetrahydro-6-(propylamino)-benzothiazole]
functional affinity difference between pramipexole and dexpramipexole for dopamine receptors (dopamine receptors): 10,000-20,000 folds
ALSFRS-R score change vs placebo group (exploratory analysis with covariate adjustment) (subjects with ALS [4]; 300 mg group, Month 18): significant improvement
ALSFRS-R subdomain: behaviors associated with bulbar function, decline over baseline (subjects with ALS [4]; 300 mg/day): less dramatic decline
ALSFRS-R subdomain: behaviors associated with fine motor skills (subjects with ALS [4]; 300 mg/day): dose dependent improvement over baseline
combined assessment of function and survival (CAFS), least square means (subjects with ALS [4]; high-creatinine group (baseline serum creatinine > about 72 μmol/L), 150 mg twice daily, through 12 months): 184.86
slope of decline on the ALS Functional Rating Scale (Revised), least square means (subjects with ALS [4]; high-creatinine group, 150 mg twice daily, through 12 months): −0.925
ALSFRS-R slope of decline, improvement in least square means between treatment and placebo (subjects with ALS [4]; [9]): 18%
CAFS improvement in least square means between treatment and placebo (subjects with ALS [4]; [9]): 19%
rate of mortality (Kaplan-Meier analysis) (subjects with ALS [4]; high-creatinine group, treatment group at 12 months): 10.3%
relative change in the mean ALSFRS-R change from baseline, treated vs untreated (subjects with ALS [5]; definite diagnosis subgroup): −8.3%
abs_mort_rate_change: absolute difference in mortality rate, treated vs untreated (subjects with ALS [5]; in vivo): −22.6%
mort rate change: relative change in mortality rate, treated vs untreated (subjects with ALS [5]; in vivo): −67.9%
mortality rate lower for treated patients (subjects with ALS [5]; in vivo): 22.6 percentage points
score: combined score of mortality and ALSFRS-R treatment effects (subjects with ALS [5]; in vivo): 0.343
trtd_mort_rate: mortality rate of treated patients (subjects with ALS [5]; in vivo): 10.7%
relative change in the mean ALSFRS-R change from baseline, treated vs untreated (subjects with ALS [5]; subgroup mean_pr_interval>184.5, minimum group size 100): −20.5%
abs_alsfrs_change: absolute difference in mean ALSFRS-R total scores, treated vs untreated (subjects with ALS [5]; subgroup min_pr_interval>195): 5.623 points
alsfrs change: relative change in mean ALSFRS-R change from baseline, treated vs untreated (subjects with ALS [5]; subgroup min_pr_interval>195, minimum group size 50): −26.6%
decline in levels of serum creatinine (subjects with ALS [6]; 50 mg group): 0.05
decline in levels of serum creatinine (subjects with ALS [6]; 150 mg group): 0.06
decline in levels of serum creatinine (subjects with ALS [6]; 300 mg group): 0.0
combined assessment of function and survival (CAFS) (subjects with ALS [6]; Part Two, 300 mg daily dose, p=0.040): significantly reduced reduction
mean decline in serum creatinine (subjects with ALS [6]; Part Two, daily dose 50 mg): −0.12
mean decline in serum creatinine (subjects with ALS [6]; Part Two, daily dose 300 mg): zero

headaches reported, subjects receiving riluzole vs those not receiving riluzole (ALS subjects [7]): four times as many subjects
SMILES: Nc1nc2ccc(OC(F)(F)F)cc2s1 [riluzole]
effect on ALSFRS-R score (ALS subjects [8]): has not demonstrated any effect
